# Experimental data published in patent US20240327382A1 (ALMAC DISCOVERY LIMITED, priority 2021, published 2024).
# Target: T1, Full-length USP19 (Homo sapiens, UniProt O94966)
# T1 construct: Full-length USP19 was purchased from Boston Biochem (E-576); purchased Boston Biochem E-576
# T1 sequence (O94966 1-1318): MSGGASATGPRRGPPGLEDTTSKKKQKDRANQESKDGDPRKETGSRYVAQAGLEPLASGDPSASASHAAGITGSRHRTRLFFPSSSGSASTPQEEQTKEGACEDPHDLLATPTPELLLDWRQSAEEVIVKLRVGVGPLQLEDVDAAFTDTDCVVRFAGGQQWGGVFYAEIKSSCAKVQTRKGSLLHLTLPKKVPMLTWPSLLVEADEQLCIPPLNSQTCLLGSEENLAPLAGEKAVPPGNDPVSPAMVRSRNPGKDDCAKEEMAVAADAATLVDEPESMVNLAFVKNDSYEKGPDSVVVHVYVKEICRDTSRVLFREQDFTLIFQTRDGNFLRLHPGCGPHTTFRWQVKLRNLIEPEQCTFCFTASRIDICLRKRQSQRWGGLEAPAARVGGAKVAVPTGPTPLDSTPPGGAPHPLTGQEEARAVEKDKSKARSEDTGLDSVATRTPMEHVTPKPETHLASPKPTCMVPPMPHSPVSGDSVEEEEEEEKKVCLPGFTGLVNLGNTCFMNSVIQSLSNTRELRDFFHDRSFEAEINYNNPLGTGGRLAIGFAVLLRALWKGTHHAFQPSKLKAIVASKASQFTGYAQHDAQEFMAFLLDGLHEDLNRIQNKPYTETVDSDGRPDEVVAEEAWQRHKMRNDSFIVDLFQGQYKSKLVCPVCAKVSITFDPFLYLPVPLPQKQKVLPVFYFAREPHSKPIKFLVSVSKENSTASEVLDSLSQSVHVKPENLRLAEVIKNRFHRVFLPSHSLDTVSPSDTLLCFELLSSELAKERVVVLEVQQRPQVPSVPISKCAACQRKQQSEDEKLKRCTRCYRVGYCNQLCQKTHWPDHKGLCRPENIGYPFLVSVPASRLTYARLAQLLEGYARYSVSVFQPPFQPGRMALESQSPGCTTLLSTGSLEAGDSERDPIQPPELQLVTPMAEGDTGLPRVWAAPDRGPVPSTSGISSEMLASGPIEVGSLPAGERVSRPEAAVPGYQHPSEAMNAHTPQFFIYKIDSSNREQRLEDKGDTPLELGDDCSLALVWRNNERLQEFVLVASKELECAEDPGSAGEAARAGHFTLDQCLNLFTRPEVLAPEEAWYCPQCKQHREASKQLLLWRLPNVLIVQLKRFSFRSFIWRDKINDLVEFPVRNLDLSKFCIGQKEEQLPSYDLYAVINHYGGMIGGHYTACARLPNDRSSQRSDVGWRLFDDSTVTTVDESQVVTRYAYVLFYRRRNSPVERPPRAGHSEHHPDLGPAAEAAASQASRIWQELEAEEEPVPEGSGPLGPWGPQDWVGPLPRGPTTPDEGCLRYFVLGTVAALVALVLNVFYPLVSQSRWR
# Experiment: USP19 fluorescence polarisation (FP) assay, Ubiquitin-Lys-TAMRA substrate
# Format: biochemical
# Details: average of at least two duplicate experiments
# Method in brief: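 Full-length human USP19 (added at 2.5 nM) was preincubated 30 min at RT with inhibitor (serial dilutions 200 μM to 2 μM) in 50 mM HEPES pH 7.4, 150 mM NaCl, 5 mM DTT, 0.05% BSA, 0.05% CHAPS. Ubiquitin-Lys-TAMRA isopeptide substrate (added at 500 nM) started the reaction, and FP (Ex 530/Em 575 nm) was read every 15 min over 90 min. IC50 came from non-linear regression of signal normalised to no-compound control, averaged over at least two duplicate experiments.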
row,Compound,IC50
1,"COc1ccccc1-c1ccn(C[C@@H]2CCN(C(=O)N3CC[C@@H](N)C[C@H]3c3cc(F)ccc3F)CC23CCCC3)c(=O)c1 [Example 89, 1-(((R)-7-((2S,4R)-4-Amino-2-(2,5-difluorophenyl)piperidine-1-carbonyl)-7-azaspiro[4.5]decan-10-yl)methyl)-4-(2-methoxyphenyl)pyridin-2(1H)-one]",< 10 nM
2,"CN[C@H]1C[C@@H](c2ccccc2)N(C(=O)N2CC[C@@H](Cn3cnc(-c4ccccc4)cc3=O)C3(CCCC3)C2)C1 [Example 90, 3-(((R)-7-((2S,4S)-4-(Methylamino)-2-phenylpyrrolidine-1-carbonyl)-7-azaspiro[4.5]decan-10-yl)methyl)-6-phenylpyrimidin-4(3H)-one]",< 10 nM
3,"CN[C@@H]1CCN(C(=O)N2CC[C@@H](Cn3ccc(-c4ccccc4)cc3=O)C3(CCCC3)C2)[C@H](c2cc(F)ccc2F)C1 [Example 91, 1-(((R)-7-((2S,4R)-2-(2,5-Difluorophenyl)-4-(methylamino)piperidine-1-carbonyl)-7-azaspiro[4.5]decan-10-yl)methyl)-4-phenylpyridin-2(1H)-one]",< 10 nM
4,"COc1ccccc1-c1cc(=O)n(C[C@@H]2CCN(C(=O)N3CC[C@@H](N)C[C@H]3c3ccccc3)CC23CCCC3)cn1 [Example 92, 3-(((R)-7-((2S,4R)-4-Amino-2-phenylpiperidine-1-carbonyl)-7-azaspiro[4.5]decan-10-yl)methyl)-6-(2-methoxyphenyl)pyrimidin-4(3H)-one]",< 10 nM
5,"CC(=O)N[C@@H]1CCN(C(=O)N2CC[C@@H](Cn3ccc(-c4ccccc4)cc3=O)C3(CCCC3)C2)[C@H](c2ccccc2)C1 [Example 93, N-((2S,4R)-1-((R)-10-((2-Oxo-4-phenylpyridin-1(2H)-yl)methyl)-7-azaspiro[4.5]decane-7-carbonyl)-2-phenylpiperidin-4-yl)acetamide]",10 to 100 nM
6,"CN[C@@H]1CCN(C(=O)N2CC[C@@H](Cn3cnc(-c4ccccc4)cc3=O)C3(CCCC3)C2)[C@H](c2ccc(F)cc2F)C1 [Example 94, 3-(((R)-7-((2S,4R)-2-(2,4-Difluorophenyl)-4-(methylamino)piperidine-1-carbonyl)-7-azaspiro[4.5]decan-10-yl)methyl)-6-phenylpyrimidin-4(3H)-one]",< 10 nM
7,"CN[C@@H]1CCN(C(=O)N2CC[C@@H](Cn3ccc(-c4ccccc4)cc3=O)C3(CCCC3)C2)[C@H](c2ccc(F)cc2F)C1 [Example 95, 1-(((R)-7-((2S,4R)-2-(2,4-Difluorophenyl)-4-(methylamino)piperidine-1-carbonyl)-7-azaspiro[4.5]decan-10-yl)methyl)-4-phenylpyridin-2(1H)-one]",< 10 nM
8,"O=C(N[C@@H]1CCN(C(=O)N2CC[C@@H](Cn3ccc(-c4ccccc4)cc3=O)C3(CCCC3)C2)[C@H](c2ccccc2)C1)C1CC1 [Example 96, N-((2S,4R)-1-((R)-10-((2-Oxo-4-phenylpyridin-1(2H)-yl)methyl)-7-azaspiro[4.5]decane-7-carbonyl)-2-phenylpiperidin-4-yl)cyclopropanecarboxamide]",10 to 100 nM
9,"CN[C@@H]1CCN(C(=O)N2CC[C@@H](Cn3cnc(-c4ccccc4OC)cc3=O)C3(CCCC3)C2)[C@H](c2ccccc2)C1 [Example 97, 6-(2-Methoxyphenyl)-3-(((R)-7-((2S,4R)-4-(methylamino)-2-phenylpiperidine-1-carbonyl)-7-azaspiro[4.5]decan-10-yl)methyl)pyrimidin-4(3H)-one]",< 10 nM
10,"CN[C@@H]1CCN(C(=O)N2CCC(Cn3ccc(-c4ccccc4)cc3=O)CC2)[C@H](c2cc(F)ccc2F)C1 [Example 98, 1-((1-((2S,4R)-2-(2,5-Difluorophenyl)-4-(methylamino)piperidine-1-carbonyl)piperidin-4-yl)methyl)-4-phenylpyridin-2(1H)-one]",< 10 nM
11,"CN[C@@H]1CCN(C(=O)N2CC[C@@H](Cn3cnc(-c4ccccc4OC)cc3=O)C3(CCCC3)C2)[C@H](c2cc(F)ccc2F)C1 [Example 99, 3-(((R)-7-((2S,4R)-2-(2,5-Difluorophenyl)-4-(methylamino)piperidine-1-carbonyl)-7-azaspiro[4.5]decan-10-yl)methyl)-6-(2-methoxyphenyl)pyrimidin-4(3H)-one]",< 10 nM
12,"N[C@@H]1CCN(C(=O)N2CC[C@@H](Cn3cnc4ccc(F)cc4c3=O)C3(CCCC3)C2)[C@H](c2ccccc2)C1 [Example 100, 3-(((R)-7-((2S,4R)-4-Amino-2-phenylpiperidine-1-carbonyl)-7-azaspiro[4.5]decan-10-yl)methyl)-6-fluoroquinazolin-4(3H)-one]",< 10 nM
13,"CN[C@@H]1CCN(C(=O)N2CC[C@@H](Cn3cnc4ccc(F)cc4c3=O)C3(CCCC3)C2)[C@H](c2ccccc2)C1 [Example 101, 6-Fluoro-3-(((R)-7-((2S,4R)-4-(methylamino)-2-phenylpiperidine-1-carbonyl)-7-azaspiro[4.5]decan-10-yl)methyl)quinazolin-4(3H)-one]",< 10 nM
14,"CN[C@@H]1CCN(C(=O)N2CC[C@@H](Cn3cnc(-c4ccccc4OC)cc3=O)C3(CCCC3)C2)[C@H](c2cccc(F)c2)C1 [Example 102, 3-(((R)-7-((2S,4R)-2-(3-Fluorophenyl)-4-(methylamino)piperidine-1-carbonyl)-7-azaspiro[4.5]decan-10-yl)methyl)-6-(2-methoxyphenyl)pyrimidin-4(3H)-one]",< 10 nM
15,"CN[C@@H]1CCN(C(=O)N2CC[C@@H](Cn3cnc(-c4ccccc4OC)cc3=O)C3(CCCC3)C2)[C@H](c2ccccc2F)C1 [Example 103, 3-(((R)-7-((2S,4R)-2-(2-Fluorophenyl)-4-(methylamino)piperidine-1-carbonyl)-7-azaspiro[4.5]decan-10-yl)methyl)-6-(2-methoxyphenyl)pyrimidin-4(3H)-one]",< 10 nM
16,"CN[C@@H]1CCN(C(=O)N2CC[C@@H](Cn3cnc(-c4ccccc4OC)cc3=O)C3(CCCC3)C2)[C@H](c2ccc(F)cc2)C1 [Example 104, 3-(((R)-7-((2S,4R)-2-(4-Fluorophenyl)-4-(methylamino)piperidine-1-carbonyl)-7-azaspiro[4.5]decan-10-yl)methyl)-6-(2-methoxyphenyl)pyrimidin-4(3H)-one]",< 10 nM
17,"COC(=O)CN[C@@H]1CCN(C(=O)N2CC[C@@H](Cn3cnc(-c4ccccc4)cc3=O)C3(CCCC3)C2)[C@H](c2ccccc2)C1 [Example 105, Methyl ((2S,4R)-1-((R)-10-((6-oxo-4-phenylpyrimidin-1(6H)-yl)methyl)-7-azaspiro[4.5]decane-7-carbonyl)-2-phenylpiperidin-4-yl)glycinate]",< 10 nM
18,"O=C(O)CN[C@@H]1CCN(C(=O)N2CC[C@@H](Cn3cnc(-c4ccccc4)cc3=O)C3(CCCC3)C2)[C@H](c2ccccc2)C1 [Example 106, Sodium ((2S,4R)-1-((R)-10-((6-Oxo-4-phenylpyrimidin-1(6H)-yl)methyl)-7-azaspiro[4.5]decane-7-carbonyl)-2-phenylpiperidin-4-yl)glycinate]",< 10 nM
19,"N[C@@H]1CCN(C(=O)N2CC[C@@H](Cn3cnc(-c4ccccc4)cc3=O)C3(CCCC3)C2)[C@H](c2cc(F)cc(F)c2)C1 [Example 107, 3-[[(10R)-7-[(2S,4R)-4-amino-2-(3,5-difluorophenyl)piperidine-1-carbonyl]-7-azaspiro[4.5]decan-10-yl]methyl]-6-phenyl-pyrimidin-4-one]",< 10 nM
20,"N[C@@H]1CCN(C(=O)N2CC[C@@H](Cn3ccc(-c4ccccc4)cc3=O)C3(CCCC3)C2)[C@H](c2cc(F)cc(F)c2)C1 [Example 108, 1-(((R)-7-((2S,4R)-4-Amino-2-(3,5-difluorophenyl)piperidine-1-carbonyl)-7-azaspiro[4.5]decan-10-yl)methyl)-4-phenylpyridin-2(1H)-one]",< 10 nM
